From US11981661B2, “Heterocyclic compounds” (Hoffmann-La Roche Inc., priority 2020, dated 2024)

Molecular target: T1, MAGL (Homo sapiens, UniProt Q99685)
T1 sequence (Q99685 1-303): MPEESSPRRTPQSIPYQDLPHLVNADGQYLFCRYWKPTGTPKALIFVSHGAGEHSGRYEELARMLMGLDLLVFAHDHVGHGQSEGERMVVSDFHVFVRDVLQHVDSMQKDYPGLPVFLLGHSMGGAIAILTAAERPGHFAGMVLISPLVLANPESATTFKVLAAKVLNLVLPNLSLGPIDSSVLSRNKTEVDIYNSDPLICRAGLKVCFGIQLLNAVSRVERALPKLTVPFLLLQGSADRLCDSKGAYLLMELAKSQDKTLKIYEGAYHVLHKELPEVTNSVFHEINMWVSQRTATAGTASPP
Experiment: 2-AG assay (MAGL inhibitory activity, hydrolysis of 2-arachidonoylglycerol followed by mass spectrometry)
Format: biochemical
Conditions: 50 pM MAGL, 8 μM 2-arachidonoylglycerol, 15 min preincubation, 30 min incubation at RT, concentration range 12.5 μM to 0.8 pM
Description: Compounds were profiled for MAGL inhibitory activity by determining the enzymatic activity by following the hydrolysis of the natural substrate 2-arachidonoylglycerol resulting in arachidonic acid, which can be followed by mass spectrometry. This assay is hereinafter abbreviated “2-AG assay”.
The 2-AG assay was carried out in 384 well assay plates (PP, Greiner Cat #784201) in a total volume of 20 μL. Compound dilutions were made in 100% DMSO (VWR Chemicals 23500.297) in a polypropylene plate in 3-fold dilution steps to give a final concentration range in the assay from 12.5 μM to 0.8 pM. 0.25 μL compound dilutions (100% DMSO) were added to 9 μL MAGL in assay buffer (50 mM TRIS (GIBCO, 15567-027), 1 mM EDTA (Fluka, 03690-100 mL), 0.01% (v/v) Tween. After shaking, the plate was incubated for 15 min at RT. To start the reaction, 10 μL 2-arachidonoylglycerol in assay buffer was added. The final concentrations in the assay was 50 pM MAGL and 8 μM 2-arachidonoylglyerol. After shaking and 30 min incubation at RT, the reaction was quenched by the addition of 40 μL of ACN containing 4 μM of d8-arachidonic acid. The amount of arachidonic acid was traced by an online SPE system (Agilent Rapidfire) coupled to a triple quadrupole mass spectrometer (Agilent 6460). A C18 SPE cartridge (G9205A) was used in an ACN/water liquid setup. The mass spectrometer was operated in negative electrospray mode following the mass transitions 303.1→259.1 for arachidonic acid and 311.1→267.0 for d8-arachidonic acid. The activity of the compounds was calculated based on the ratio of intensities [arachidonic acid/d8-arachidonic acid].

| SMILES | IC50 [µM] |
| --- | --- |
| O=C1N[C@H](COC(=O)N2CC(c3ccc(Oc4ccc(F)cc4)cc3)C2)CO1 [Example 58, [(4S)-2-Oxooxazolidin-4-yl]methyl 3-[4-(4-fluorophenoxy)phenyl]azetidine-1-carboxylate] | 0.004 |
| CN(CCc1cnn[nH]1)C(=O)N1CC(OCc2ccc(C(F)(F)F)cc2F)C1 [Example 66, 3-[[2-Fluoro-4-(trifluoromethyl)phenyl]methoxy]-N-methyl-N-[2-(1H-triazol-5-yl)ethyl]azetidine-1-carboxamide] | 0.013 |
| O=C(NCCc1cnn[nH]1)N1CC(OCc2ccc(C(F)(F)F)cc2F)C1 [Example 64, 3-[[2-Fluoro-4-(trifluoromethyl)phenyl]methoxy]-N-[2-(1H-triazol-5-yl)ethyl]azetidine-1-carboxamide] | 0.093 |
| CC(C)(Oc1ccc(C2CN(C(=O)CCc3cnn[nH]3)C2)cc1)C(F)(F)F [Example 38, 3-(1H-1,2,3-Triazol-5-yl)-l-(3-(4-((1,1,1-trifluoro-2-methylpropan-2-yl)oxy)phenyl)azetidin-1-yl)propan-1-one] | 0.234 |
| O=C(CCCc1cnn[nH]1)N1CC(c2ccc(Oc3ccc(OC(F)(F)F)cc3)nc2)C1 [Example 42, 4-(1H-Triazol-5-yl)-1-[3-[6-[4-(trifluoro-methoxy)phenoxy]-3-pyridyl]azetidin-1-yl]butan-1-one] | 0.218 |
| CC(C)(C)c1ccc(C2CN(C(=O)CCC3CCC(=O)N3)C2)cc1 (single isomer, unassigned; (+)) [Example 4, (+)-5-[3-[3-(4-tert-Butylphenyl)azetidin-1-yl]-3-oxo-propyl]pyrrolidin-2-one] | 0.005 |
| O=C(CCc1cnn[nH]1)N1CC(c2ccc(C3(C(F)(F)F)CC3)cc2)C1 [Example 37, 3-(1H-1,2,3-Triazol-5-yl)-1-(3-(4-(1-(trifluoromethyl)cyclo-propyl)phenyl)azetidin-1-yl)propan-1-one] | 0.339 |
| CS(=O)(=O)c1cc(Cl)ccc1-c1ccc(C2CN(C(=O)CC[C@@H]3COC(=O)N3)C2)cc1 [Example 82, (4R)-4-[3-[3-[4-(4-Chloro-2-methyl-sulfonyl-phenyl)phenyl]azetidin-1-yl]-3-oxo-propyl]oxazolidin-2-one] | 0.0005 |
| O=C1CCC(CCC(=O)N2CC(OCc3ccc(C(F)(F)F)cc3F)C2)N1 (single isomer, unassigned; (-)) [Example 1, (−)-5-[3-[3-[[2-Fluoro-4-(trifluoromethyl)phenyl]methoxy]azetidin-1-yl]-3-oxo-propyl]pyrrolidin-2-one] | 3.96 |
| O=C(CCCc1cnn[nH]1)N1CC2(CC(Oc3cncc(C(F)(F)F)n3)C2)C1 [Example 43, 4-(1H-Triazol-5-yl)-1-[6-[6-(trifluoromethyl)pyrazin-2-yl]oxy-2-azaspiro[3.3]heptan-2-yl]butan-1-one] | 6.95 |
| CS(=O)(=O)c1ccc(C(c2ccccc2)C2CCN(C(=O)CC[C@@H]3COC(=O)N3)CC2)cc1 (single isomer, unassigned) [Example 84, (−)- or (+)-(−)-(4R)-4-[3-[4-[(4-Methyl-sulfonylphenyl)-phenyl-methyl]-1-piperidyl]-3-oxo-propyl]oxazolidin-2-one] | 0.294 |
| NS(=O)(=O)c1ccccc1CN1CC2(C1)CN(C(=O)CC[C@@H]1COC(=O)N1)C2 [Example 153, 2-[[2-[3-[(4R)-2-Oxooxazolidin-4-yl]propanoyl]-2,6-diazaspiro[3.3]heptan-6-yl]methyl]benzene-sulfonamide] | 2.33 |
| O=C1N[C@@H](COC(=O)N2CC(OCc3ccc(C(F)(F)F)cc3F)C2)CO1 [Example 55, [(4R)-2-Oxooxazolidin-4-yl]methyl 3-[[2-fluoro-4-(trifluoromethyl)phenyl]methoxy] azetidine-1-carboxylate] | 0.033 |
| CS(=O)(=O)c1cc(F)ccc1OC1CCC2(CC1)CN(C(=O)CC[C@@H]1COC(=O)N1)C2 [Example 137, (4R)-4-[3-[7-(4-Fluoro-2-methyl-sulfonyl-phenoxy)-2-azaspiro[3.5]nonan-2-yl]-3-oxo-propyl] oxazolidin-2-one] | 0.043 |

Second part, the molecule after the results:

| IC50 [µM] | SMILES |
| --- | --- |
| 0.14 | O=C1N[C@H](CCC(=O)N2CC3(CCC(Cc4cnc(C(F)(F)F)cn4)CC3)C2)CO1 [Example 190, (4R)-4-[3-Oxo-3-[7-[[5-(trifluoro-methyl)pyrazin-2-yl]methyl]-2-azaspiro[3.5]nonan-2-yl]propyl] oxazolidin-2-one] |
| 0.379 | CS(=O)(=O)c1ccc(-c2cnc(C3CN(C(=O)CC[C@@H]4COC(=O)N4)C3)nc2)c(Cl)c1 [Example 122, (4R)-4-[3-[3-[5-(2-Chloro-4-methylsulfonyl-phenyl)pyrimidin-2-yl]azetidin-1-yl]-3-oxo-propyl] oxazolidin-2-one] |
| 0.982 | CS(=O)(=O)c1ccc(-c2ncc(C3CN(C(=O)CC[C@@H]4COC(=O)N4)C3)cn2)c(Cl)c1 [Example 123, (4R)-4-[3-[3-[2-(2-Chloro-4-methylsulfonyl-phenyl)pyrimidin-5-yl]azetidin-1-yl]-3-oxo-propyl] oxazolidin-2-one] |
| 0.016 | O=C1N[C@H](CCC(=O)N2CC(c3ccc(N4CC(C(F)(F)F)C4)c(F)c3)C2)CO1 [Example 134, (4R)-4-[3-[3-[3-Fluoro-4-[3-(trifluoromethyl)azetidin-1-yl]phenyl]azetidin-1-yl]-3-oxo-propyl] oxazolidin-2-one] |
| 0.009 | O=C1N[C@H](CCC(=O)N2CC(c3ccc([C@H]4CC[C@H](C(F)(F)F)CC4)nc3)C2)CO1 (single isomer, unassigned) [Example 201] |
| 0.003 | CS(=O)(=O)c1ncc(C(F)(F)F)cc1-c1ccc(C2CN(C(=O)CC[C@@H]3COC(=O)N3)C2)cc1 [Example 124, (4R)-4-[3-[3-[4-[2-Methyl-sulfonyl-5-(trifluoromethyl)-3-pyridyl]phenyl]azetidin-1-yl]-3-oxo-propyl] oxazolidin-2-one] |
| 0.002 | O=C1N[C@H](CCC(=O)N2CC(c3ccc(-c4ccc(F)cc4F)cc3)C2)CO1 [Example 24, (4R)-4-[3-[3-[4-(2,4-Difluorophenyl)phenyl]azetidin-1-yl]-3-oxo-propyl]oxazolidin-2-one] |
| 0.854 | O=C1N[C@H](CCC(=O)N2CC(c3noc(C45CC(C(F)(F)F)(C4)C5)n3)C2)CO1 [Example 169, (4R)-4-[3-Oxo-3-[3-[5-[3-(trifluoromethyl)-1-bicyclo[1.1.1]pentanyl]-1,2,4-oxadiazol-3-yl]azetidin-1-yl]propyl] oxazolidin-2-one] |
| 0.007 | O=C1N[C@H](CCC(=O)N2CC(OCc3ccc(C(F)(F)F)cc3F)C2)CO1 [Example 20, (4R)-4-[3-[3-[[2-Fluoro-4-(trifluoromethyl)phenyl]methoxy]azetidin-1-yl]-3-oxo-propyl]oxazolidin-2-one] |
| 0.353 | O=C1N[C@H](CCC(=O)N2CC(c3ccc(-c4nc(C5CC5)n[nH]4)cc3)C2)CO1 [Example 177, (4R)-4-[3-[3-[4-(3-Cyclo-propyl-1H-1,2,4-triazol-5-yl)phenyl]azetidin-1-yl]-3-oxo-propyl]oxazolidin-2-one] |
| 0.054 | O=C1NC(COC(=O)N2CC(c3ccc(N4CCC(C(F)(F)F)C4)nc3)C2)CO1 (single isomer, unassigned) [Example 86, (−)- or (+)-[(4S)-2-Oxooxazolidin-4-yl]methyl 3-[6-[3-(trifluoromethyl)pyrrolidin-1-yl]-3-pyridyl]azetidine-1-carboxylate] |
| 0.081 | O=C1N[C@H](CCC(=O)N2CC(c3ccc(S(=O)(=O)C(F)(F)F)cc3)C2)CO1 [Example 76, (4R)-4-[3-Oxo-3-[3-[4-(trifluoro-methylsulfonyl)phenyl]azetidin-1-yl]propyl]oxazolidin-2-one] |
| 0.002 | O=C1N[C@H](CCC(=O)N2CC(c3ccc(C4CC(C(F)(F)F)C4)cc3)C2)CO1 (stereo partly drawn) [Example 133, (4R)-4-[3-Oxo-3-[3-[4-[3-(trifluoro-methyl)cyclobutyl]phenyl]azetidin-1-yl]propyl]oxazolidin-2-one] |
| 0.001 | CC(C)(Oc1ccc(C2CN(C(=O)CC[C@@H]3COC(=O)N3)C2)cc1)C(F)(F)F [Example 25, (4R)-4-[3-Oxo-3-[3-[4-(2,2,2-trifluoro-1,1-dimethyl-ethoxy)phenyl]azetidin-1-yl]propyl]oxazolidin-2-one] |
| 0.017 | O=C1N[C@H](CCC(=O)N2CC(c3ccc(NCC4(C(F)(F)F)CC4)cn3)C2)CO1 [Example 175, (4R)-4-[3-Oxo-3-[3-[5-[[1-(trifluoromethyl)cyclopropyl]methylamino]-2-pyridyl]azetidin-1-yl]propyl]oxazolidin-2-one] |
